Marks after values point to notes of the source that are not given here.

The subject of data set [1] is B(a)P-induced lung adenoma. Briefly: Tumor bioassay: B(a)P-induced lung tumorigenesis, ITC-NAC conjugates in diet during post-initiation phase. On the procedure:
The ITC conjugates were incorporated (15 μmol/g diet) into AIN-76A diets (5% corn oil) by mixing with dextrose prior to diet preparation. The conjugates, 9.36 g BITC-NAC (15 mmol) or 9.79 g PEITC-NAC (15 mmol), were dissolved in 50 ml ethyl acetate, and then mixed with 200 g dextrose to ensure even coating of dextrose particles. After mixing with dextrose, the solvent was removed using a rotary evaporator and further dried using a vacuum pump (2-3 h). Diets were prepared in 1-2 kg batches, and were stored at 4° C. in a container purged with nitrogen. […] Stability was determined by extraction of 0.5 g portions of the diet with 2.5 ml methanol (2×). The methanol extracts were combined and a 1 ml aliquot was filtered using a 0.47 μm syringe filter. A 10 μl sample was then analyzed on HPLC (Jiao, et al., Chem. Res. Toxicol., 9: 932-938, 1996).
Tumor Bioassay: Female strain A mice (Jackson Laboratories, Bar Harbor, Me.) of four weeks of age were housed under quarantine in polycarbonate cages (5 mice/cage) and provided modified AIN 76A diet (5% corn oil) and acidified drinking water ad libitum. The mice were maintained on a 12 h light: 12 h dark regimen at 22±5° C. and 50±20% relative humidity. After one week, the mice were weighed, and distributed into four groups containing 30 to 35 mice on the basis of body weight. At seven weeks of age, the mice in groups 1-3 were gavaged with a single dose of 20 μmol B(a)P in 0.2 ml cottonseed oil; group 4 received the vehicle only. Two days after dosing with the carcinogen, diets containing BITC-NAC (15 μmol/g, Group 2) and PEITC-NAC (15 μmol/g, Group 3) were provided. Groups 1 (B[a]P control) and 4 (vehicle only) remained on the modified AIN-76A diet with 5% corn oil. Tap water was provided ad libitum during the course of the bioassay. Mice were observed daily; diets were replenished on the fourth day of the week, and completely replaced on the seventh day. Mice were weighed weekly for four weeks, then monthly and at termination. At 84 days after B(a)P dosing, four mice per group were killed (CO2, cervical dislocation) to harvest lung tissues for molecular and immunohistochemical studies and to quantify lung adenomas, if present. At 140 days after B(a)P, the remaining mice in each group were killed. The number of lung tumors was recorded; lobes of lungs were placed in 10% phosphate buffered formalin for histological and immunohistochemical analysis. The remaining lung lobes were snap frozen in liquid nitrogen.
Mean tumor multiplicity and body weights at each time point were compared between groups using Student's T test.

The test system of data set [2] is c-Jun (AP-1 pathway) and Akt pathway genes. Kind of data set: Mouse Cancer Pathway Finder Gene Array on lung RNA. In kind it is in vivo, A/J mice. As to conditions: PEITC-NAC high dose diet vs control diet. From the text: Some mice also had developed forestomach masses. […] Findings involving other pathways will be presented.
Data set [3] relates to A549/TAM67 cells. Briefly: Apoptosis in A549/TAM67 transfectants (morphology, DNA fragmentation, annexin V, PARP Western blot). The class given is cell-based, human. Conditions: 25 μM. (A western blot detects proteins with antibodies after separation by electrophoresis.)
Data set [4] concerns A549/control-vector cells. Briefly: Apoptosis in A549/control-vector transfectants (morphology, DNA fragmentation, annexin V, PARP Western blot). In kind it is cell-based, human. As to conditions: 25 μM.
Data set [5] concerns A549 cells. Briefly: Apoptosis in A549 cells treated with TPA, PEITC-NAC or TPA plus PEITC-NAC (photography, DAPI staining). The class given is cell-based, human. As to conditions: TPA 100 nM 12 h prior, then PEITC-NAC 24 h. An excerpt: Assay for single cell DNA strand breaks: A549 cells treated with or without TPA, PEITC-NAC or TPA plus PEITC-NAC were collected at the times specified in the text, cytocentrifuged and stained with 4′-6′diamidino-2-phenylindole (DAPI). The photographs were taken using an Olympus AX 70 microscope (Melville, N.Y.) with fluorescence and SPOT RT Slider digital image system (Diagnostic Instruments Inc., Sterling Heights, Mich.). Arrows indicated the typical apoptotic features of DNA strand breakage and nuclear fragmentation.
TPA (100 nM) was added to A549 cells 12 h prior to addition of PEITC-NAC, which was added 24 h before photography of cells, protein isolation, or DAPI staining. […] These cells were treated identically, but were stained with the DNA fluorochrome DAPI.

Data set [6] concerns A549 cells. Briefly: Cell cycle phase-specific DNA strand breaks (TUNEL) in A549 cells. The class given is cell-based, human. On the procedure: Detection of cell cycle phase-specific DNA strand breaks (“TUNEL”): A549 cells were fixed with 1% formaldehyde for 15 min and then permabilized by post-fixation in 70% ethanol. The presence of in situ DNA strand breaks, a characteristic feature of apoptosis was detected by labeling them with a fluorochrome-conjugated nucleotide in the reaction catalyzed by the terminal deoxynucleotidyl transferase; cellular DNA was counterstained with DAPI. The kit provided by Phoenix Flow Systems (San Diego, Calif.) was used in this assay. This method is also described in detail elsewhere (Gorczyca et al., Internat J. Oncol. 1992, 1:639-648). Green and red fluorescence of cells probed for DNA strand breaks and DNA content was measured using a FACScan flow cytometer (Becton Dickinson, San Jose, Calif.) with standard settings of green (strand breaks) and red (DNA) fluorescence detection. To calculate the percentage of apoptotic cells in respective phases of cell cycle, DNA content frequency histograms were deconvoluted using CELLQuest software.
Apoptosis induced by PEITC-NAC occurs predominantly in dividing cells. […] DNA strand breaks during apoptosis was detected by end-labeling, which was combined with analysis of the cellular DNA content. […]

On to `CC(=O)N[C@@H](CSC(=S)NCCc1ccccc1)C(=O)O` [PEITC-NAC, N-acetylcysteine Conjugate of phenethyl isothiocyanate], for which, in data set [1] (15 μmol/g diet after B(a)P, at termination, B(a)P control 6.1±3.1), the “tumor multiplicity” value amounted to 3.4±2.7 tumors/mouse. Besides, the “Tumor Incidence (%), lung adenoma” value in data set [1] (15 μmol/g diet from 2 days after 20 μmol B(a)P, 140 days) came to 89%. The “Tumor multiplicity (no. of tumors/mice), lung adenoma” value in data set [1] (15 μmol/g diet from 2 days after 20 μmol B(a)P, 140 days, mean ± SD) is reported as 3.39 ± 2.71^b no. of tumors/mice. Moreover, in data set [1] (15 μmol/g diet, controls 25.8 g and 25.7 g), the “average body weight at termination” value amounted to 22.8 g. Besides, the tumor reduction in data set [1] (versus B(a)P control diet group, at termination) is given as 44%. Further, in data set [2], the “c-Jun expression (AP-1 pathway) and Akt pathway genes” value was “up-regulated”. For the same molecule, the “PARP 89 kD cleavage fragment” value is reported as “a defined 89 kD band” in data set [3] (3 h) and “a very light 89 kD cleavage fragment” in data set [4] (3 h). For the same molecule, in data set [3] (20 h), the “cell survival (annexin V-Cy3 / 6-CFDA staining)” value is reported as “nearly no cell survival”. Also, the results for the PARP protein result in data set [3] (24 h) and in data set [4] (24 h) were “completely degraded” and “maintained a significant levels of intact PARP protein”, respectively. In addition, the “cell survival (morphology, DNA fragmentation)” value in data set [3] (24 h) was “most TAM67 transfectants had already died”; in data set [4] (24 h), “the majority of control-vector transfectants were still alive”. Further, in data set [5], the “incidence of apoptosis in TPA-pretreated cells compared with PEITC-NAC alone” value is reported as “a much higher incidence of apoptosis”. The cell cycle distribution result in data set [6] (25 μM, 16 h) is “a substantial portion of the cells accumulate in G2M phase”. The “apoptotic cells by DNA strand break labeling” value in data set [6] (50 μM, 24 h) is “a distinct population of apoptotic cells”.

The values above are taken from patent publication US20060241178A1, “Compositions and methods for treating lung cancer” (priority 2002, published 2006).
